The source of these data is PMC9495348, “Polyfunctionalized α-Phenyl-tert-butyl(benzyl)nitrones: Multifunctional Antioxidants for Stroke Treatment” (Antioxidants, 2022).

One test deals with T1, soybean lipoxygenase (Glycine max, UniProt P08170).
T1 construct: purchased Aldrich Chemical Co. Milwaukee, WI, (USA)
T1 sequence (P08170 1-839): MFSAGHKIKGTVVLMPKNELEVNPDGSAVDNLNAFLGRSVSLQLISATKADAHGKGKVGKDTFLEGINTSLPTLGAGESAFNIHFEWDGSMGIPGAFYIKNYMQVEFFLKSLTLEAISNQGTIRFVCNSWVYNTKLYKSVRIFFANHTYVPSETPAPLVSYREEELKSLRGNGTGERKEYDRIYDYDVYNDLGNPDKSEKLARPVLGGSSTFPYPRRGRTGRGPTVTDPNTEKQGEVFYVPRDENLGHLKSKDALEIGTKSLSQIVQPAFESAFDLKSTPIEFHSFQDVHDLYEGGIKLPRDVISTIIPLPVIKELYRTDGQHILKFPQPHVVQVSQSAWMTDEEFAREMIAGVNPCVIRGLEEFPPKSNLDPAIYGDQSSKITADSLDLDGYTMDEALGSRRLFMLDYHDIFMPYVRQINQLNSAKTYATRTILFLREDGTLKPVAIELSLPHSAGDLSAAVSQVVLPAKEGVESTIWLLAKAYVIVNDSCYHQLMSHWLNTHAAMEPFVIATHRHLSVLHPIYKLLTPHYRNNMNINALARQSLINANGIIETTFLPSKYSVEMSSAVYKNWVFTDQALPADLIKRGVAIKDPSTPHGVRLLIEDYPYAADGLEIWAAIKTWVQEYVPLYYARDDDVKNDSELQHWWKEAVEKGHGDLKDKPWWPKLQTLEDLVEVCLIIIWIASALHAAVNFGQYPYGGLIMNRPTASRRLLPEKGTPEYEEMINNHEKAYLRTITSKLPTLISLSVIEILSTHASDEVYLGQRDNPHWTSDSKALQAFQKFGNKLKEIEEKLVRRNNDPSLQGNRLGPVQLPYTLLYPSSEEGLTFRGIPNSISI
As to the kind of experiment: In vitro inhibition of soybean LOX. The class given is biochemical. Particulars: for IC50: soybean LOX, sodium linoleate 0.1 mM. The method, then:
The in vitro study was performed as previously described. The compounds were incubated at room temperature with sodium linoleate (0.1 mM) and 0.2 mL of soybean lipoxygenase solution (1/9 × 10^–4 w/v in phosphate buffer saline). The method was based on the conversion of sodium linoleate to 13-hydroperoxylinoleic acid, which was detected by measuring absorbance at 234 nm. […] To determine the IC50 values, serial dilutions of compounds were used. Blank determination served as a negative control.

Test [1] is described as follows: ABTS+ decolorization assay in ethanolic solution. Particulars: compounds assayed at 100 µM; n.a. = not active.
The nature of test [2]: DPPH radical-scavenging assay. As to conditions: compounds assayed at 100 µM, DPPH 70 µM, 90 min; no = no activity. As to the method:
The assay was performed as previously described by incubating compounds at a concentration of 100 µM in the presence of 2,2-diphenyl-1-picrylhydrazyl radical (DPPH, 70 µM) in methanol for 90 min, protected from sun light. The absorbance at 517 nm was then determined using a Synergy™ H4 microplate reader (BioTek Instruments, Inc., Winooski, VT, USA). The experiments were performed in triplicate, and the blank (compound without DPPH) was substracted. The percentage of DPPH free radicals was calculated using the equation DPPH free radicals (%) = ((A0 − A1)/A0) × 100, where A0 is the absorbance of MeOH and A1 is the absorbance of the compound. Trolox and resveratrol were used as positive controls.

Test [3] is described as follows: Competition of the tested compounds with DMSO for hydroxyl radicals. As to conditions: compounds assayed at 100 µM; n.a. = not active; no = no activity.
The nature of test [4]: Inhibition of linoleic acid peroxidation (ILPO) induced by AAPH. As to conditions: compounds assayed at 100 µM; n.a. = not active.
A further test has as its target T2, Aβ1–42 (Homo sapiens, UniProt P05067).
T2 construct: HFIP-pretreated Aβ1–42 peptide Merck Millipore, Darmstadt, Germany; purchased Merck Millipore, Darmstadt, Germany
In words: Inhibition of Aβ1–42 aggregation, Thioflavin-T assay. The class given is biochemical. As to conditions: 10 µM compound and 1.5 µM Aβ1–42, ThT assay. The method, then: Thioflavin-T (ThT) assay was performed to investigate the effect of the compounds on the aggregation of Aβ1–42 (HFIP-pretreated Aβ1–42 peptide Merck Millipore, Darmstadt, Germany). Prior to the incubations, 1 mM Aβ1–42 peptide stock solution in DMSO was diluted in 150 mM HEPES buffer (pH = 7.4, 150 mM NaCl) to obtain a concentration of 7.5 μM. Subsequently, 20 µL of Aβ1–42 ([…]) was mixed with the compounds (10 µM, final concentration) on black-walled 96-well plates and diluted with ThT solution (14.3 μM stock solution in HEPES-buffered solution; 10 μM final concentration). The final volume of the mixture was 100 μL, and the DMSO concentration was always 3% (v/v). Each sample was prepared in four technical replicates. ThT fluorescence (λex = 440 nm, λem = 490 nm) was measured using a microplate reader (Synergy™ H4, BioTek Instruments, Inc., Winooski, VT, USA) for 36–48 h. Inhibition of Aβ1–42 aggregation was expressed as the percent inhibition (% inh = (1 − Fi/F0) × 100), where Fi is the increase in fluorescence of compound-treated Aβ1–42, and F0 is the increase in fluorescence of non-treated Aβ1–42.

Test [5] has as its system SH-SY5Y neuroblastoma cells. In words: Neuroprotection against okadaic acid, MTT cell viability. It counts as cell-based. Particulars: okadaic acid 20 nM for 20 h, compounds 0.3–10 µM.
[6] abbreviates: compounds assayed at 100 µM, n.a. = not active, no = no activity under the experimental conditions.

T2 sequence (P05067 672-713): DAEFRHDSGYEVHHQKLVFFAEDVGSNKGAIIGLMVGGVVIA

Turning to `C#CCN1CCN(CCCOc2ccc(/C=[N+](\[O-])Cc3ccccc3)cc2)CC1` [nitrone 7, (Z)-N-Benzyl-1-(4-(3-(4-(prop-2-yn-1-yl)piperazin-1-yl)propoxy)phenyl) methanimine oxide], on soybean lipoxygenase (setting [6]), the inhibition at 100 µM stood at 27.2%. The “ABTS+ (%)” value in test [1] came to 28%. In addition, the DPPH in test [2] is 0.
As to `CC(C)(C)/[N+]([O-])=C/c1ccccc1` [PBN, α-phenyl-N-tert-butylnitrone, reference compound], the “OH Scav. Capacity (%)” value in test [3] is “no”. Besides, the inhibition at 100 µM at soybean lipoxygenase (setting [6]) worked out at 23%. In test [4], the “ILPO (%)” value is given as 11%. Further, in test [1], the “ABTS+ (%)” value stood at 5%. Moreover, in test [2], the DPPH entry is “no”.
`CC(C)(C)/[N+]([O-])=C/c1ccc(OCCCN2CCCCC2)cc1` [nitrone 2, (Z)-N-tert-Butyl-1-(4-(3-(piperidin-1-yl)propoxy)phenyl)methanimine oxide]: the “OH Scav. Capacity (%)” value in test [3] stood at 54%. For the same compound, in test [2], the DPPH was determined as 0.
`CC(C)(C)/[N+]([O-])=C/c1cccc(OCCCN2CCCCC2)c1` [nitrone 4, (Z)-N-tert-Butyl-1-(3-(3-(piperidin-1-yl)propoxy)phenyl)methanimine oxide]: the “OH Scav. Capacity (%)” value in test [3] was determined as 54%. Also, 100 µM produced 37% inhibition at soybean lipoxygenase (setting [6]). In addition, the “ILPO (%)” value in test [4] is 45%. Also, in test [1], the “ABTS+ (%)” value is 23%. Besides, the DPPH in test [2] was 0.
As for `C#CCN1CCN(CCCOc2ccc(/C=[N+](\[O-])C(C)(C)C)cc2)CC1` [nitrone 8, (Z)-N-tert-Butyl-1-(4-(3-(4-(prop-2-yn-1-yl)piperazin-1-yl)propoxy)phenyl) methanimine oxide], in test [3], the “OH Scav. Capacity (%)” value was 78%. On soybean lipoxygenase (setting [6]), this compound gave an inhibition at 100 µM of 23.3%. In addition, the “ABTS+ (%)” value in test [1] is 10%. Moreover, in test [2], the DPPH came to 0.
On to `C#CCN1CCN(CCCOc2ccccc2/C=[N+](\[O-])C(C)(C)C)CC1` [nitrone 12, (Z)-N-tert-Butyl-1-(2-(3-(4-(prop-2-yn-1-yl)piperazin-1-yl)propoxy)phenyl) methanimine oxide], for which the “OH Scav. Capacity (%)” value in test [3] is 9.8%. At soybean lipoxygenase (setting [6]), this compound displayed an inhibition at 100 µM of 25%. Also, the “ILPO (%)” value in test [4] stood at 31%. Besides, the “ABTS+ (%)” value in test [1] turned out to be 13%.
As for `[O-]/[N+](=C\c1ccccc1OCCCN1CCCCC1)Cc1ccccc1` [nitrone 5, (Z)-N-Benzyl-1-(2-(3-(piperidin-1-yl)propoxy)phenyl)methanimine oxide], the “OH Scav. Capacity (%)” value in test [3] came out at 9%. In addition, inhibition at soybean lipoxygenase was half-maximal at 10 µM (IC50). Moreover, the “ABTS+ (%)” value in test [1] was determined as 19%. The DPPH in test [2] turned out to be 0.
Turning to `[O-]/[N+](=C\c1cccc(OCCCN2CCCCC2)c1)Cc1ccccc1` [nitrone 3, (Z)-N-Benzyl-1-(3-(3-(piperidin-1-yl)propoxy)phenyl)methanimine oxide], the “ILPO (%)” value in test [4] is 29%. Further, the “ABTS+ (%)” value in test [1] is given as 31%. In addition, the DPPH in test [2] was found to be 2.
On to `[O-]/[N+](=C\c1ccc(OCCCN2CCCCC2)cc1)Cc1ccccc1` [nitrone 1, (Z)-N-Benzyl-1-(4-(3-(piperidin-1-yl)propoxy)phenyl)methanimine oxide], for which the “OH Scav. Capacity (%)” value in test [3] is 7%. For the same compound, the IC50 against soybean lipoxygenase was 60 µM. Also, the inhibition at 10 µM at Aβ1–42 was determined as 42.2 ± 5.7%. In addition, the “ABTS+ (%)” value in test [1] was determined as 27%. For the same compound, in test [5], the “neuroprotective effect (augmented OA-reduced cell viability)” value is on record as “statistically significant at 10 µM”. In addition, the DPPH in test [2] was found to be 0.
With `C#CCN1CCN(CCCOc2cccc(/C=[N+](/[O-])Cc3ccccc3)c2)CC1` [nitrone 9, (E)-N-Benzyl-1-(3-(3-(4-(prop-2-yn-1-yl)piperazin-1-yl)propoxy)phenyl)methanimine oxide], the “OH Scav. Capacity (%)” value in test [3] is 81%. Besides, the IC50 against soybean lipoxygenase came out at 100 µM. Also, the DPPH in test [2] came out at 1.
For the compound `CC(C)(C)/[N+]([O-])=C/c1ccccc1OCCCN1CCCCC1` [nitrone 6, (Z)-N-tert-Butyl-1-(2-(3-(piperidin-1-yl)propoxy)phenyl)methanimine oxide], the “OH Scav. Capacity (%)” value in test [3] came to 13%. At soybean lipoxygenase (setting [6]), this compound came in with an inhibition at 100 µM of 39%. The DPPH in test [2] stood at 0.
`C#CCN1CCN(CCCOc2cccc(/C=[N+](\[O-])C(C)(C)C)c2)CC1` [nitrone 10, (Z)-N-tert-Butyl-1-(3-(3-(4-(prop-2-yn-1-yl)piperazin-1-yl)propoxy)phenyl) methanimine oxide]: the “OH Scav. Capacity (%)” value in test [3] was 20%. The “LOX Inhibition (%)” value on soybean lipoxygenase (setting [6]) is “no”. Besides, the “ILPO (%)” value in test [4] was determined as 31%. Also, the “ABTS+ (%)” value in test [1] was determined as 13%. Moreover, the DPPH in test [2] came to 0.
`Cc1c(C)c2c(c(C)c1O)CCC(C)(C(=O)O)O2` (centres unmarked) [Trolox, reference compound]: the “OH Scav. Capacity (%)” value in test [3] is recorded as 88%. The “ILPO (%)” value in test [4] was found to be 93%. Moreover, the “ABTS+ (%)” value in test [1] was 91%.
